# Assay results: PubChem BioAssay (NCI)
# “And” between values parts separate entries of the source, which are not always exact repeats. Equal entries are not always repeated.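 Each compound was tested at five concentrations against cells in 96-well plates for 48 hours. Here, GI50 denotes the concentration required for 50% inhibition of growth. TGI marks complete inhibition of growth.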
# What was measured:
# Assay in all cases: DTP human tumour cell line panel, 48 h
# [1] = system: 786-0 renal
# [2] = system: A498 renal
# [3] = system: A549 NSCLC
# [4] = system: ACHN renal
# [5] = system: BT-549 breast
# [6] = system: CAKI-1 renal
# [7] = system: CCRF-CEM leukemia
# [8] = system: COLO 205 colon
# [9] = system: DU-145 prostate
# [10] = system: EKVX NSCLC
# [11] = system: HCC-2998 colon
# [12] = system: HCT-116 colon
# [13] = system: HCT-15 colon
# [14] = system: HOP-62 NSCLC
# [15] = system: HOP-92 NSCLC
# [16] = system: HS 578T breast
# [17] = system: HT29 colon
# [18] = system: IGROV1 ovarian
# [19] = system: K-562 leukemia
# [20] = system: KM12 colon
# [21] = system: LOX IMVI melanoma
# [22] = system: M14 melanoma
# [23] = system: MALME-3M melanoma
# [24] = system: MCF7 breast
# [25] = system: MDA-MB-231 breast
# [26] = system: MDA-MB-435
# [27] = system: MDA-N
# [28] = system: MOLT-4 leukemia
# [29] = system: NCI-H226 lung
# [30] = system: NCI-H23 lung
# [31] = system: NCI-H460 lung
# [32] = system: NCI-H522 lung
# [33] = system: NCI/ADR-RES ovarian
# [34] = system: OVCAR-3 ovarian
# [35] = system: OVCAR-4 ovarian
# [36] = system: OVCAR-5 ovarian
# [37] = system: OVCAR-8 ovarian
# [38] = system: PC-3 prostate
# [39] = system: RPMI-8226 leukemia
# [40] = system: RXF 393 renal
# [41] = system: SF-268 CNS
# [42] = system: SF-295 CNS
# [43] = system: SF-539 CNS
# [44] = system: SK-MEL-2 melanoma
# [45] = system: SK-MEL-28 melanoma
# [46] = system: SK-MEL-5 melanoma
# [47] = system: SK-OV-3 ovarian
# [48] = system: SN12C renal
# [49] = system: SNB-19 CNS
# [50] = system: SNB-75 CNS
# [51] = system: SR leukemia
# [52] = system: SW-620 colon
# [53] = system: T-47D breast
# [54] = system: TK-10 renal
# [55] = system: U251 CNS
# [56] = system: UACC-257 melanoma
# [57] = system: UACC-62 melanoma
compound,measurement,setting,value
C=CCN1C(=O)/C(=C/c2ccc(Cl)cc2)N=C1SC1OC(COC(C)=O)C(OC(C)=O)C(OC(C)=O)C1OC(C)=O (stereo not given),TGI,[1],12.6 µM
same,GI50,[2],80.5 µM and 31.1 µM
same,TGI,[2],> 100 µM and 73.7 µM
same,TGI,[3],65.7 µM
same,GI50,[4],14.5 µM and 37.4 µM
same,TGI,[4],> 100 µM
same,TGI,[5],> 100 µM and 84.1 µM
same,TGI,[6],28.3 µM and > 100 µM
same,TGI,[7],> 100 µM
same,GI50,[8],> 89.5 µM and 31.9 µM
same,TGI,[8],> 100 µM
same,TGI,[9],> 100 µM
same,TGI,[10],> 100 µM
same,GI50,[11],49.7 µM and 18.9 µM
same,TGI,[11],> 100 µM and 42.8 µM
same,TGI,[12],87.5 µM
same,GI50,[13],41.1 µM and 16 µM
same,TGI,[13],> 100 µM
same,GI50,[14],5.66 µM and 21.9 µM
same,TGI,[14],20.6 µM and 62.6 µM
same,GI50,[15],22 µM and 3.62 µM
same,TGI,[15],66.5 µM and 31.4 µM
same,TGI,[16],9.79 µM
same,TGI,[17],> 100 µM
same,TGI,[18],> 100 µM
same,GI50,[19],> 61.7 µM and 13.1 µM
same,TGI,[19],> 100 µM and 76.3 µM
same,TGI,[20],> 100 µM
same,TGI,[21],> 100 µM and 89.8 µM
same,TGI,[22],> 100 µM
same,TGI,[23],15 µM and > 100 µM
same,TGI,[24],> 100 µM
same,GI50,[25],7.84 µM and 23.6 µM
same,TGI,[25],43.6 µM and 80.9 µM
same,TGI,[26],> 66.3 µM and 64.8 µM
same,TGI,[27],> 100 µM
same,TGI,[28],> 100 µM and 43.2 µM
same,GI50,[29],9.63 µM and 21.9 µM
same,TGI,[29],24.5 µM and 78 µM
same,TGI,[30],> 100 µM and 76.2 µM
same,GI50,[31],8.11 µM and 31.5 µM
same,TGI,[31],36.2 µM and > 100 µM
same,TGI,[32],17.8 µM and 42.9 µM
same,GI50,[33],11.5 µM and 31.7 µM
same,TGI,[33],> 100 µM
same,TGI,[34],> 100 µM
same,GI50,[35],4.14 µM and 16.7 µM
same,TGI,[35],28.2 µM and 67.1 µM
same,GI50,[36],> 66.9 µM and 32.7 µM
same,TGI,[36],> 100 µM
same,TGI,[37],36 µM and 81.4 µM
same,GI50,[38],9.17 µM and 31 µM
same,TGI,[38],> 100 µM
same,GI50,[39],11.2 µM and 5.19 µM
same,TGI,[39],> 100 µM and 46.8 µM
same,GI50,[40],4.94 µM and 11.6 µM
same,TGI,[40],19.5 µM and 47.5 µM
same,TGI,[41],5.46 µM
same,GI50,[42],18.2 µM and 49.9 µM
same,TGI,[42],54 µM and > 100 µM
same,TGI,[43],> 100 µM
same,GI50,[44],12.6 µM and 30.1 µM
same,TGI,[44],34.6 µM and 95.8 µM
same,TGI,[45],> 100 µM
same,TGI,[46],> 100 µM
same,TGI,[47],> 61.8 µM and 65.6 µM
same,TGI,[48],> 100 µM
same,TGI,[49],87.6 µM
same,GI50,[50],4.11 µM and 25.9 µM
same,TGI,[50],13.8 µM and 81.5 µM
same,TGI,[51],> 100 µM and 36.6 µM
same,GI50,[52],> 59.6 µM and 11.1 µM
same,TGI,[52],> 100 µM
same,TGI,[53],36.9 µM
same,TGI,[54],> 100 µM
same,GI50,[55],5.23 µM and 30.1 µM
same,TGI,[55],19.7 µM and > 100 µM
same,TGI,[56],45.2 µM and 74.4 µM
same,GI50,[57],10.4 µM and 21.5 µM
same,TGI,[57],35.7 µM and > 100 µM
